Results as given in patent US20190345250A1, “ANTIBODY DRUG CONJUGATES” (NOVARTIS AG, priority 2013, published 2019).

Assays:
[1] = tested on: CHGA119 patient-derived primary gastric tumor xenograft model; assay: Antitumor activity and body weight in CHGA119 patient-derived xenograft
Description: In these studies, CHGA119 tumor fragments in size of 2mm ×2mm×2mm were implanted subcutaneously (s.c.) into female nu/nu athymic mice. […] Tumors were calipered twice a week.

complement factor Clq = target: T1, complement factor Clq (Homo sapiens, UniProt P02745+P02746+P02747); assay: Clq binding ELISA; conditions: antibody coated 25 to 0.02 μg/ml
T1 construct: purchased Sigma C1740-1mg
Description: In additional studies, the ability of the unconjugated anti-FGFR2 antibodies to bind the complement factor Clq was evaluated. The binding of the complement factor Clq is the initial step leading to complement dependent cytotoxicity (CDC) and cell lysis in vivo. In these studies the surface of the wells of 96-well microtiterplates (Nunc, Maxisorp, catalog # 439454) were coated with serial dilutions of the antibodies 12433, 12425, N297A_12425 and 10164 over night at 4° C. in the dark (all in a concentration range from 25 to 0.02 μg/ml). The commercially available antibody, Rituximab served as a positive control. In order to monitor the amount of bound antibody analyte on the microtiterplate, this procedure was performed twice per plate utilizing the second dilution (in triplicate) for determining the coating efficacy of the analyte to the plate. Clq binding was quantified by adding a constant concentration of Clq (Sigma; Complement component Clq catalog # C1740-1mg) and detected using a polyclonal goat-anti-human Clq antibody conjugated to Horse Radish Peroxidase HRP (AbD Serotec; Sheep Anti-Human Clq:HRP; Catalogue number 2221-5004P). The control of the coating efficiency was determined in the second dilution series with a peroxidase-conjugated goat-anti-human IgG antibody fragment (Jackson ImmunoResearch; catalog # 109-036-003; AffiniPure F(ab′2) fragment Goat Anti-Human IgG (H+L)). […]

[2] = CHGA119-tumor bearing mice, ADCs 10 mg/kg i.v. q2wk, BGJ398 10 mg/kg p.o. qd

T1 sequence (P02745 23-245): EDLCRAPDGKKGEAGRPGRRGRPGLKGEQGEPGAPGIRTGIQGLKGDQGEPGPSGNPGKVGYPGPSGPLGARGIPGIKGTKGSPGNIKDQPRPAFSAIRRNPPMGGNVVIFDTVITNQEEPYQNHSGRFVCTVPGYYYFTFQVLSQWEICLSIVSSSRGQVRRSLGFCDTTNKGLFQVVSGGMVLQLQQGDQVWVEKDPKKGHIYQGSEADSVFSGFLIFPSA
T1 sequence (P02746 28-253): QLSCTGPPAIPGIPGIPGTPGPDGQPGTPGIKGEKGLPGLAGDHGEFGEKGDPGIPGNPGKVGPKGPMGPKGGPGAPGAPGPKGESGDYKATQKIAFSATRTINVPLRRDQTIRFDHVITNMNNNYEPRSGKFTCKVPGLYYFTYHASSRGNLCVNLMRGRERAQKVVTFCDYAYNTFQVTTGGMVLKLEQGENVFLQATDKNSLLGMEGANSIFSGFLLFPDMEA
T1 sequence (P02747 29-245): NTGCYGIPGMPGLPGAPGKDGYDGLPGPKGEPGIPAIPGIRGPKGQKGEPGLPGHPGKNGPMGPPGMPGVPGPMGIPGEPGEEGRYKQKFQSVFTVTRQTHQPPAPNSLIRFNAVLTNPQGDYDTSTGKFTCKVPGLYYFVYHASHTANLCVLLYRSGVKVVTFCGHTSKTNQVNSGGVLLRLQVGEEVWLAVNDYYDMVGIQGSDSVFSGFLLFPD

Clq binding potency (EC50) (complement factor Clq)	Compound	Host response: % body weight change (mean ± SEM) [1, 2]	Host response: Mean body weight change (g ± SEM) [1, 2]	Host response: Survival (survivors/total) [1, 2]	T/C ([1]; single agent, 10 mg/kg, after 5 weeks of treatment)
–	CCN1CCN(c2ccc(Nc3cc(N(C)C(=O)Nc4c(Cl)c(OC)cc(OC)c4Cl)ncn3)cc2)CC1 [BGJ398, 3-(2,6-Dichloro, 3,5-dimethoxy-phenyl)-1-{6-[4-(4-ethyl-piperazin-1-yl)-phenylamino]-pyrimidin-4-yl}-1-methyl-urea]	−3.7 ± 3%	-0.8 ± 0.7 g	8/8	33%
about the same	Rituximab: commercially available antibody, positive control for Clq binding	–	–	–	–
